Measurements from publication PMC8110684, “Effects of Bacillus subtilis iturin A on HepG2 cells in vitro and vivo” (AMB Express, 2021).
Where two headings read alike, the source gives them in different places. Each block holds one compound with its values, some of them ahead of it. Where a SMILES comes first, the peptide text is derived from it.

How the values were obtained:
HepG2 cells [1] = experiment: Capability to enter cells (CFNSE label, fluorescence microscopy); conditions: dissolved in cell culture medium, incubated with HepG2 for 10 min, fluorescence microscope
Experimental: (§1) The purified CFNSE-iturin A was dissolved in cell culture medium and incubated with HepG2 cells for 10 min, and then observed under a fluorescence microscope and photographed. The control group was cells incubated with CFNSE for the same time.

[2] = Effect of treatment on mice health (weight, serum biochemistry, necropsy, histopathology); type: in vivo, BALB/c nude mice; conditions: 3 mg/kg per day
Experimental: During the 15-day trial, the weight and food intake of mice were recorded daily.
At euthanasia, blood was collected after the animals had been fasted overnight. Blood samples were collected from both control and test groups via cardiac puncture under ketamine anesthesia. All blood samples were then subjected to clinical analysis of aspartate aminotransferase (AST), alanine aminotransferase (ALT), and creatinine (SCr).
Mice were examined for gross lesions. Tissues and organs of interest were retained. The liver, kidneys, and spleen of all mice were weighed soon after dissection and then preserved in 4% paraformaldehyde for histopathological examination (Turki et al. [2010]). Histopathological assessments were performed to evaluate viscera retained from both control and treated animals. Viscera of interest were trimmed, processed, embedded in paraffin, sectioned, and stained with H&E before their microscopic examination.

HepG2 cells [3] = tested on: HepG2 cells
Experimental: as §1

entry into HepG2 cells (cell fluorescence) (HepG2 cells [1]): could not enter the cells
Compound: 5(6)-Carboxy fluorescein N-succinimidyl ester [CFNSE]

Compound: CCCCCCCCCCCC1CC(=O)N[C@@H](CC(N)=O)C(=O)N[C@H](Cc2ccc(O)cc2)C(=O)N[C@H](CC(N)=O)C(=O)N[C@@H](CCC(N)=O)C(=O)N2CCC[C@H]2C(=O)N[C@H](CC(N)=O)C(=O)N[C@@H](CO)C(=O)N1 (stereo partly shown) [iturin A] (HELM PEPTIDE1{N.[dY].[dN].Q.P.[dN].S.[CCCCCCCCCCCC(CC(=O)[*:2])N[*:1]]}$PEPTIDE1,PEPTIDE1,1:R1-8:R2$$$V2.0)
kidney histopathology (H&E) ([2]; 15 days): no necrotic cells or cell swelling was found
liver histopathology (H&E) ([2]; 15 days): no hepatocyte swelling, necrosis, inflammatory cell infiltration, or other phenomena were observed
spleen histopathology (H&E) ([2]; 15 days): orderly arrangement of cells without necrosis
body weight versus control group ([2]; 15 days, n = 6): no significant difference
weight and viscera indexes of liver, spleen and kidney versus control ([2]; 15 days, n = 6): No significant differences
serum ALT versus control ([2]; end of administration, n = 6): increased significantly
serum AST versus control ([2]; end of administration, n = 6): increased significantly
serum creatinine (SCr) versus control ([2]; end of administration, n = 6): no significant difference
entry into HepG2 cells (cell fluorescence) (HepG2 cells [3]): could enter HepG2 cells within very short time
